According to patent US6355799B1, “Substituted benzene compounds, process for their preparation, and herbicidal and defoliant compositions containing them” (ISK Americas Incorporated, priority 1997, dated 2002):

Key:
Type in all cases: in vivo
[1] = test system: redroot pigweed (Amaranthus retroflexus, AMARE); assay: Pre-emerge test, greenhouse herbicide activity screening; conditions: rating scale 0-100, 14 days after application
Outline: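 Herbicidal damage is scored 0 (none) to 100 (complete plant death) two weeks after a simulated field spray. Rates span 15–1000 g ai/ha, delivered in acetone at 187 l/ha. For post-emergence treatments, plants have 2–3 leaves and the spray carries 0.25% v/v non-ionic surfactant.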

[2] = test system: johnsongrass (Sorghum halepense, SORHA); assay: as above; conditions: rating scale 0-100, 14 days after application
Outline: (§1)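 Rating: 0–100 visual injury, 14 DAA. Application: acetone, 187 l/ha, 15–1000 g ai/ha, flat-fan track sprayer with nozzle 40–45 cm above soil or canopy. Post-emerge runs used 0.25% v/v surfactant on 2–3 leaf plants.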

[3] = test system: lambsquarters (Chenopodium album, CHEAL); assay: as above; conditions: rating scale 0-100, 14 days after application
Outline: as §1

[4] = test system: sicklepod (Cassia obtusifolia, CASOB); assay: as above; conditions: rating scale 0-100, 14 days after application
Outline: as §1

[5] = test system: green foxtail (Setaria viridis, SETVI); assay: as above; conditions: rating scale 0-100, 14 days after application
Outline: as §1

[6] = test system: common ragweed (Ambrosia artemisizfolia L., AMBEL); assay: as above; conditions: rating scale 0-100, 14 days after application
Outline: as §1

[7] = test system: barnyardgrass (Echinochloa crus-galli, ECHCG); assay: as above; conditions: rating scale 0-100, 14 days after application
Outline: as §1

[8] = test system: large crabgrass (Digitaria sanguinalis, DIGSA); assay: as above; conditions: rating scale 0-100, 14 days after application
Outline: as §1

[9] = test system: velvetleaf (Abutilon theophrasti, ABUTH); assay: as above; conditions: rating scale 0-100, 14 days after application
Outline: as §1

[10] = test system: ivyleaf morningglory (Ipomoea hederacea, IPOHE); assay: as above; conditions: rating scale 0-100, 14 days after application
Outline: as §1

[11] = test system: johnsongrass (Sorghum halepense, SORHA); assay: Post-emerge test, greenhouse herbicide activity screening; conditions: rating scale 0-100 (0 no damage, 100 complete death), 14 days after application
Outline: (§2)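 Compounds in acetone were track-sprayed at 15–1000 g ai/ha: pre-emergence onto soil sown the previous day, then top-watered to incorporate and later bottom-watered; post-emergence onto 2–3 leaf plants with 0.25% v/v surfactant, bottom-watered only. Ratings on a 0–100 phytotoxicity scale were taken at day 14.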

[12] = test system: redroot pigweed (Amaranthus retroflexus, AMARE); assay: as above; conditions: rating scale 0-100 (0 no damage, 100 complete death), 14 days after application
Outline: as §2

[13] = test system: lambsquarters (Chenopodium album, CHEAL); assay: as above; conditions: rating scale 0-100 (0 no damage, 100 complete death), 14 days after application
Outline: as §2

[14] = test system: sicklepod (Cassia obtusifolia, CASOB); assay: as above; conditions: rating scale 0-100 (0 no damage, 100 complete death), 14 days after application
Outline: as §2

[15] = test system: green foxtail (Setaria viridis, SETVI); assay: as above; conditions: rating scale 0-100 (0 no damage, 100 complete death), 14 days after application
Outline: as §2

[16] = test system: barnyardgrass (Echinochloa crus-galli, ECHCG); assay: as above; conditions: rating scale 0-100 (0 no damage, 100 complete death), 14 days after application
Outline: as §2

[17] = test system: large crabgrass (Digitaria sanguinalis, DIGSA); assay: as above; conditions: rating scale 0-100 (0 no damage, 100 complete death), 14 days after application
Outline: as §2

[18] = test system: velvetleaf (Abutilon theophrasti, ABUTH); assay: as above; conditions: rating scale 0-100 (0 no damage, 100 complete death), 14 days after application
Outline: as §2

[19] = test system: ivyleaf morningglory (Ipomoea hederacea, IPOHE); assay: as above; conditions: rating scale 0-100 (0 no damage, 100 complete death), 14 days after application
Outline: as §2

[20] = test system: upland rice (Oryza sp., var. Tebonnet, RICE); assay: Pre-emerge test, crop safety; conditions: rating scale 0-100, 14 days after application
Outline: (§3)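 Visual ratings on a 0-100 scale (0 no damage, 100 all plants dead) were taken at 14 days after treatment. Rates of 15-1000 g ai/ha in acetone, 187 l/ha, were sprayed onto soil one day after planting (pre-emerge) or onto 2-3 leaf plants with 0.25% v/v surfactant (post-emerge).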

[21] = test system: field corn (Zea mays L., var. Dekalb 535, CORN); assay: Pre-emerge test, crop safety; conditions: rating scale 0-100, 14 days after application
Outline: as §3

[22] = test system: upland rice (Oryza sp., var. Tebonnet, RICE); assay: Post-emerge test, crop safety; conditions: rating scale 0-100 (0 no damage, 100 complete death), 14 days after application
Outline: (§4)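 Plants grown in 10 cm pots of sandy loam mix received acetone-dissolved compounds through a moving flat-fan nozzle. Doses ranged from 15 to 1000 g ai/ha. Pre-emerge pots were seeded one day earlier, post-emerge pots 8–21 days earlier. Fourteen days on, each pot was graded 0–100 for damage.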

[23] = test system: field corn (Zea mays L., var. Dekalb 535, CORN); assay: Post-emerge test, crop safety; conditions: rating scale 0-100 (0 no damage, 100 complete death), 14 days after application
Outline: as §4

COc1c(Cl)cc(F)c(-n2c(=O)cc(C(F)(F)F)n(C)c2=O)c1CC(C)(Cl)C(=O)OC(C(F)(F)F)C(F)(F)F (stereo not shown) [14-46]
Pre-emerge herbicidal activity, phytotoxicity rating AMARE ([1]; 63 g ai/ha): 60 | Pre-emerge herbicidal activity, phytotoxicity rating AMARE ([1]; 250 g ai/ha): 95 | Pre-emerge herbicidal activity, phytotoxicity rating SORHA ([2]; 63 g ai/ha): 0 | Pre-emerge herbicidal activity, phytotoxicity rating SORHA ([2]; 250 g ai/ha): 0 | Pre-emerge herbicidal activity, phytotoxicity rating CHEAL ([3]; 63 g ai/ha): 0 | Pre-emerge herbicidal activity, phytotoxicity rating CHEAL ([3]; 250 g ai/ha): 90 | Pre-emerge herbicidal activity, phytotoxicity rating CASOB ([4]; 63 g ai/ha): 0 | Pre-emerge herbicidal activity, phytotoxicity rating CASOB ([4]; 250 g ai/ha): 0 | Pre-emerge herbicidal activity, phytotoxicity rating SETVI ([5]; 63 g ai/ha): 0 | Pre-emerge herbicidal activity, phytotoxicity rating SETVI ([5]; 250 g ai/ha): 0 | Pre-emerge herbicidal activity, phytotoxicity rating AMBEL ([6]; 63 g ai/ha): 50 | Pre-emerge herbicidal activity, phytotoxicity rating AMBEL ([6]; 250 g ai/ha): 100 | Pre-emerge herbicidal activity, phytotoxicity rating ECHCG ([7]; 63 g ai/ha): 0 | Pre-emerge herbicidal activity, phytotoxicity rating ECHCG ([7]; 250 g ai/ha): 0 | Pre-emerge herbicidal activity, phytotoxicity rating DIGSA ([8]; 63 g ai/ha): 0 | Pre-emerge herbicidal activity, phytotoxicity rating DIGSA ([8]; 250 g ai/ha): 0 | Pre-emerge herbicidal activity, phytotoxicity rating ABUTH ([9]; 63 g ai/ha): 80 | Pre-emerge herbicidal activity, phytotoxicity rating ABUTH ([9]; 250 g ai/ha): 100 | Pre-emerge herbicidal activity, phytotoxicity rating IPOHE ([10]; 63 g ai/ha): 0 | Pre-emerge herbicidal activity, phytotoxicity rating IPOHE ([10]; 250 g ai/ha): 0 | Post-emerge Herbicidal Activity, phytotoxicity rating SORHA ([11]; Rate 63 g ai/ha): 80 | Post-emerge Herbicidal Activity, phytotoxicity rating SORHA ([11]; Rate 250 g ai/ha): 90 | Post-emerge Herbicidal Activity, phytotoxicity rating AMARE ([12]; Rate 63 g ai/ha): 95 | Post-emerge Herbicidal Activity, phytotoxicity rating AMARE ([12]; Rate 250 g ai/ha): 100 | Post-emerge Herbicidal Activity, phytotoxicity rating CHEAL ([13]; Rate 63 g ai/ha): 100 | Post-emerge Herbicidal Activity, phytotoxicity rating CHEAL ([13]; Rate 250 g ai/ha): 100 | Post-emerge Herbicidal Activity, phytotoxicity rating CASOB ([14]; Rate 63 g ai/ha): 60 | Post-emerge Herbicidal Activity, phytotoxicity rating CASOB ([14]; Rate 250 g ai/ha): 90 | Post-emerge Herbicidal Activity, phytotoxicity rating SETVI ([15]; Rate 63 g ai/ha): 90 | Post-emerge Herbicidal Activity, phytotoxicity rating SETVI ([15]; Rate 250 g ai/ha): 100 | Post-emerge Herbicidal Activity, phytotoxicity rating ECHCG ([16]; Rate 63 g ai/ha): 100 | Post-emerge Herbicidal Activity, phytotoxicity rating ECHCG ([16]; Rate 250 g ai/ha): 100 | Post-emerge Herbicidal Activity, phytotoxicity rating DIGSA ([17]; Rate 63 g ai/ha): 80 | Post-emerge Herbicidal Activity, phytotoxicity rating DIGSA ([17]; Rate 250 g ai/ha): 100 | Post-emerge Herbicidal Activity, phytotoxicity rating ABUTH ([18]; Rate 63 g ai/ha): 100 | Post-emerge Herbicidal Activity, phytotoxicity rating ABUTH ([18]; Rate 250 g ai/ha): 100 | Post-emerge Herbicidal Activity, phytotoxicity rating IPOHE ([19]; Rate 63 g ai/ha): 100 | Post-emerge Herbicidal Activity, phytotoxicity rating IPOHE ([19]; Rate 250 g ai/ha): 100 | Pre-emerge phytotoxicity rating, crop damage RICE ([20]; 63 g ai/ha): 0 | Pre-emerge phytotoxicity rating, crop damage RICE ([20]; 250 g ai/ha): 30 | Pre-emerge phytotoxicity rating, crop damage CORN ([21]; 63 g ai/ha): 0 | Pre-emerge phytotoxicity rating, crop damage CORN ([21]; 250 g ai/ha): 0 | Post-emerge phytotoxicity rating RICE (crop damage) ([22]; Rate 63 g ai/ha): 60 | Post-emerge phytotoxicity rating RICE (crop damage) ([22]; Rate 250 g ai/ha): 100 | Post-emerge phytotoxicity rating CORN (crop damage) ([23]; Rate 63 g ai/ha): 95 | Post-emerge phytotoxicity rating CORN (crop damage) ([23]; Rate 250 g ai/ha): 100
